Data as given in the supplement of paper PMC11451515.

Test system: SEM cells
Test: cell viability relative to DMSO control; higher = less cytotoxic
Conditions: 48 h
Outline: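 Library compounds in DMSO were pin-dosed into 1536-well plates (5 μl) holding NOMO1 or SEM (500 cells/well) or P12-Ichikawa (1000 cells/well) leukemia cells, across an 11-point threefold series of 47 μM to 0.79 nM. Each cell line had been adapted for at least four passages in each medium. CellTiter-Glo One luminescence was read after 48 h at 37°C. Viability is the per-plate percentage relative to DMSO wells, with cell-free wells as background.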

[1] = HPLM + 10% dialyzed FBS, 0.000781 µM
[2] = HPLM + 10% dialyzed FBS, 0.00234 µM
[3] = HPLM + 10% dialyzed FBS, 0.00702 µM
[4] = HPLM + 10% dialyzed FBS, 0.0211 µM
[5] = HPLM + 10% dialyzed FBS, 0.0632 µM
[6] = HPLM + 10% dialyzed FBS, 0.19 µM
[7] = HPLM + 10% dialyzed FBS, 0.569 µM
[8] = HPLM + 10% dialyzed FBS, 1.71 µM
[9] = HPLM + 10% dialyzed FBS, 5.12 µM
[10] = HPLM + 10% dialyzed FBS, 15.4 µM
[11] = HPLM + 10% dialyzed FBS, 46.1 µM
[12] = RPMI 5 mM glucose + 10% FBS, 0.000781 µM
[13] = RPMI 5 mM glucose + 10% FBS, 0.00234 µM
[14] = RPMI 5 mM glucose + 10% FBS, 0.00702 µM
[15] = RPMI 5 mM glucose + 10% FBS, 0.0211 µM
[16] = RPMI 5 mM glucose + 10% FBS, 0.0632 µM
[17] = RPMI 5 mM glucose + 10% FBS, 0.19 µM
[18] = RPMI 5 mM glucose + 10% FBS, 0.569 µM
[19] = RPMI 5 mM glucose + 10% FBS, 1.71 µM
[20] = RPMI 5 mM glucose + 10% FBS, 5.12 µM
[21] = RPMI 5 mM glucose + 10% FBS, 15.4 µM
[22] = RPMI 5 mM glucose + 10% FBS, 46.1 µM
[23] = RPMI 5 mM glucose + 10% dialyzed FBS, 0.000781 µM
[24] = RPMI 5 mM glucose + 10% dialyzed FBS, 0.00234 µM
[25] = RPMI 5 mM glucose + 10% dialyzed FBS, 0.00702 µM
[26] = RPMI 5 mM glucose + 10% dialyzed FBS, 0.0211 µM
[27] = RPMI 5 mM glucose + 10% dialyzed FBS, 0.0632 µM
[28] = RPMI 5 mM glucose + 10% dialyzed FBS, 0.19 µM
[29] = RPMI 5 mM glucose + 10% dialyzed FBS, 0.569 µM
[30] = RPMI 5 mM glucose + 10% dialyzed FBS, 1.71 µM
[31] = RPMI 5 mM glucose + 10% dialyzed FBS, 5.12 µM
[32] = RPMI 5 mM glucose + 10% dialyzed FBS, 15.4 µM
[33] = RPMI 5 mM glucose + 10% dialyzed FBS, 46.1 µM

SMILES	cell viability [1]	cell viability [2]	cell viability [3]	cell viability [4]	cell viability [5]	cell viability [6]	cell viability [7]	cell viability [8]	cell viability [9]	cell viability [10]	cell viability [11]	cell viability [12]	cell viability [13]	cell viability [14]	cell viability [15]	cell viability [16]	cell viability [17]	cell viability [18]	cell viability [19]	cell viability [20]	cell viability [21]	cell viability [22]	cell viability [23]	cell viability [24]	cell viability [25]	cell viability [26]	cell viability [27]	cell viability [28]	cell viability [29]	cell viability [30]	cell viability [31]	cell viability [32]	cell viability [33]
N[C@H](CSC(c1ccccc1)(c1ccccc1)c1ccccc1)C(=O)O	105%	99.3%	113%	99.4%	117%	97%	102%	94%	69.4%	54.9%	14.7%	44.8%	74.6%	75.2%	68.2%	71.1%	60.9%	69.8%	52.3%	47.2%	18.7%	2.79%	100%	105%	122%	86.5%	106%	95.6%	94%	82.1%	60.8%	40.1%	12.8%
C[C@@H]1[C@H](O)[C@@H](C)/C=C/C=C/C=C/C=C/C=C/C=C/C=C/[C@H](O[C@@H]2O[C@H](C)[C@@H](O)[C@H](N)[C@@H]2O)C[C@@H]2O[C@](O)(C[C@@H](O)C[C@@H](O)[C@H](O)CC[C@@H](O)C[C@@H](O)CC(=O)O[C@H]1C)C[C@H](O)[C@H]2C(=O)O	105%	92.1%	105%	110%	110%	110%	103%	114%	102%	105%	125%	113%	115%	110%	107%	105%	112%	112%	108%	104%	121%	118%	110%	103%	108%	93.8%	114%	116%	105%	108%	109%	91.2%	127%
COc1ncc(-c2ccc3nccc(-c4ccnnc4)c3c2)cc1N[S+](=O)([O-])c1ccc(F)cc1F	81%	71.8%	60.5%	66.9%	59.4%	50.4%	43.9%	30%	21.1%	6.8%	6.02%	79%	65%	74.8%	61.7%	51.9%	46.7%	37%	19.2%	14.2%	6.8%	5.84%	98.1%	79.9%	67.8%	68.7%	64.6%	54.4%	51.9%	26.5%	16.7%	6.57%	5.89%
C[C@@]12C[C@@]3(O)O[C@@H](O1)[C@]1(COC(=O)c4ccccc4)[C@H]3C[C@@]12O[C@@H]1O[C@H](CO)[C@@H](O)[C@H](O)[C@H]1O	96%	91.2%	109%	117%	98.5%	103%	108%	96.7%	107%	113%	107%	105%	87%	101%	100%	124%	92.6%	116%	138%	111%	105%	98.9%	99%	89.8%	118%	122%	121%	101%	119%	115%	122%	107%	122%
COc1ccc(-c2ccc3c(N4CCOC[C@@H]4C)nc(N4CCOC[C@@H]4C)nc3n2)cc1CO	101%	58.2%	96.6%	92.1%	87.3%	62.2%	60.3%	53.4%	50.9%	33%	4.42%	110%	52%	118%	101%	89.7%	51%	67.5%	55.8%	36.5%	12.6%	4.05%	105%	53%	110%	88.9%	82.2%	64.7%	67.4%	56.2%	45.7%	34.3%	3.94%
C\C1=C(\C=C(\C#N)C(=O)N1)C2=CC=NC=C2	82.7%	86.9%	91.6%	104%	101%	113%	99.3%	111%	96.7%	126%	113%	109%	92.5%	113%	109%	121%	112%	108%	112%	84.9%	122%	97.8%	115%	101%	111%	130%	118%	117%	96.4%	109%	105%	109%	114%
O=C(Nc1ccc(F)c(C(F)(F)F)c1)Nc1nnc(-c2ccncc2)s1												99.6%	112%	104%	103%	107%	105%	88.9%	104%	105%	106%	92.8%	121%	114%	124%	113%	115%	117%	121%	104%	113%	125%	109%
Cc1[nH]c2ccccc2c1CCNCc1ccc(/C=C/C(=O)NO)cc1	99.1%	114%	112%	114%	116%	75.8%	12.3%	7.29%	8.44%	8.29%	8.77%	85.6%	88.8%	101%	94.3%	92.5%	74.1%	12.6%	5.77%	7.04%	7.05%	7.05%	89.9%	106%	108%	115%	112%	81.6%	19.5%	7.59%	8.77%	8.45%	9.84%
C[C@]1(c2nc3c(C(N)=O)cccc3[nH]2)CCCN1	63.8%	74.1%	75.9%	89.1%	78.3%	81.3%	74.5%	90.6%	87.2%	80.3%	63%	81%	62.7%	68%	88.8%	83%	87.4%	89.7%	85%	98%	98.1%	59.8%	68.5%	63.7%	64.9%	87.2%	71.9%	79%	84.5%	75.6%	76.7%	76.7%	51.5%
COc1ccc(C2CNC(=O)C2)cc1OC1CCCC1 (centres undefined)	80.8%	93.4%	91.4%	89.7%	106%	97.7%	107%	102%	108%	97%	101%	82.9%	88.6%	89.9%	81.7%	100%	95.3%	102%	110%	97.3%	107%	90.2%	85.9%	89.7%	101%	89.8%	95%	99.3%	94.6%	99.9%	101%	102%	103%
NC/1=N/C2=C([NH]C=N2)C(=S)N1	110%	57%	106%	115%	117%	114%	108%	117%	113%	110%	24.2%	114%	81.5%	117%	105%	119%	114%	102%	103%	102%	108%	16.1%	95.1%	81.6%	103%	118%	113%	103%	81%	37.7%	29.6%	33.5%	9.21%
CC(C)=CC[C@@H](O)C/1=C/C(=O)C2=C(O)C=CC(=C2C1=O)O	76.2%	90.2%	89.5%	96%	98.3%	97.7%	93.5%	91.4%	98.7%	119%	77.4%	82.4%	76.6%	79.2%	81.9%	93.2%	98.3%	92.3%	105%	86.2%	77.8%	47.1%	72.2%	87.8%	85.8%	95.5%	99%	104%	111%	117%	87.4%	80.4%	21.6%
CCOC(=O)\C1=C(/C)N\C2=C(C1C3=CC=C(C=C3)C4=CC=CC=C4)\C(=O)CC(C)(C)C2 (centres undefined)	107%	104%	101%	105%	104%	113%	103%	102%	105%	92%	60.4%	101%	122%	134%	114%	144%	108%	110%	112%	108%	96.1%	58.4%	89.4%	116%	111%	98.3%	104%	89.4%	97.5%	103%	89.8%	81.1%	57.6%
Cc1ccc([S+](=O)([O-])N[C@@H](Cc2ccccc2)C(=O)CCl)cc1	91%	58.6%	93.2%	93.3%	93%	105%	96.4%	109%	103%	85.5%	25.3%	87.4%	53.1%	94%	97%	95.8%	114%	95.6%	108%	104%	87%	22.1%	80.5%	49.8%	100%	104%	88.6%	95.4%	93.6%	107%	100%	94.3%	23.4%
C[C@@H]\1CC(=O)N\N=C1C2=CC=C(NN=C(C#N)C#N)C=C2	88.9%	86.8%	101%	87.4%	98.4%	96.5%	55.4%	92.3%	106%	62.8%	4.93%	68.2%	92.4%	107%	92.6%	88.4%	102%	39.3%	90.9%	95.2%	35.3%	5%	73.5%	88.4%	91.4%	93.1%	95.2%	92.5%	72.8%	100%	107%	53.2%	6.27%
